Entries after “also recorded” stand apart in the source; their conditions may differ. Where no end group is shown, it is not given here.
Columns and labels:
[1] = test system: B78 murine melanoma cells; assay: Melanoma cell survival (trypan blue exclusion); type: cell-based, mouse; conditions: up to 72 hr, 30 μM
Experimental: FIG. 18. SSTNI/V BLOCKS SURVIVAL OF MOUSE MELANOMA CELLS. B78 murine melanoma cells grown in serum-containing DMEM are incubated for up to 72 hr in 30 μM SSTNVLA4, SSTNIGF1R or SSTNI/V, then viable cells were quantified by trypan blue exclusion.
All cells were cultured at 37° C. and 92.5% air/7.5% CO2. The derivation and culture of CAG myeloma and HMEC-1 cells are described previously (Ades et al. 1992, Rapraeger et al. 2013). B78 murine melanoma cells were kindly provided by Dr. Sondel, Department of Pediatrics, University of Wisconsin-Madison. All cells are routinely screened for mycoplasma contamination. For viability studies, 2.5×10^4 myeloma cells/well or 10^4 B78 murine melanoma cells were plated in 96-well plates in complete DMEM containing 10% calf serum in the presence or absence of SSTN peptides for 24, 48 or 72 hrs. Numbers of viable cells were then determined by addition of CellTiter-GLO reagent to the culture medium as described by the manufacturer and viable cells determined by staining with 0.4% trypan blue and counting cells that exclude (viable) or take up (dead) the stain.

[2] = test system: UM-SCC47, SCC25, MDA-MB-468, MDA-MB-231, MCF-7 and SKBr3 carcinoma cells; conditions: 3, 10 or 30 μM, 3 days; Beauvais et al. 2016; cited from earlier work
[3] = SSTN stability assay in human plasma; type: in vitro ADME; conditions: more than 3 days at 37° C.
Experimental: (§1) For stability assays, SSTNIGF1R, SSTNVLA4, SSTNI/V and GRGDSP peptide (SEQ ID NO:31; EMD Millipore) were incubated in human plasma (obtained from the UW-Madison Hospital Blood Bank) for 0, 8, 24 or 72 hr, then tested in the endothelial cell adhesion assay or cell viability assay and compared to a standard curve generated using fresh peptide.

[4] = Beauvais et al., 2016; plasma species not printed at the place; cited from earlier work
[5] = test system: Apoptosis signal regulating kinase-1 (ASK1); conditions: CAG or MM.1R myeloma cells, 6 hr, 10 μM; modified from Beauvais et al. 2016; cited from earlier work
[6] = test system: M21 murine melanoma cells; assay: Melanoma cell invasion through filters coated with fibronectin; type: cell-based, mouse; conditions: 16 hr, 30 μM peptide
Experimental: FIG. 17. […] M21 murine melanoma cells are allowed to migrate for 16 hr through filters coated with fibronectin. The relative roles of the αvβ3 integrin and the α4β1 integrin (VLA-4) are determined using blocking antibodies to αv and α4 integrin subunits, or both antibodies combined.

[7] = Beauvais et al., 2016; cited from earlier work
[8] = SSTN stability in bovine serum; type: in vitro ADME; conditions: more than 3 days at 37° C.
[9] = test system: angiogenesis in the mouse cornea; conditions: induced by FGF in the mouse cornea; Beauvais et al., 2009; cited from earlier work
[10] = SSTN stability assay in mouse serum; type: in vitro ADME; conditions: for stability (activity retained): mouse serum, 3 days (SSTNIGF1R: more than 3 days); for stability (activity retained) / stability in serum (in words): 37° C.; for stability in serum (in words): mouse (rodent) serum, up to 72 hr
Experimental: FIG. 16. SSTNI/V IS STABLE IN RODENT SERUM, EQUIVALENT TO SSTNIGF1R AND SSTNVLA4. SSTNI/V, SSTNIGF1R and SSTNVLA4 were incubated at 37° C. for up to 72 hr in mouse serum. Note that rodent serum is known to contain substantial proteolytic activity against peptides. A GRGDSP integrin-inhibitory peptide was used as control, tested against endothelial cell adhesion to fibronectin. Either myeloma cell viability, or endothelial cell adhesion to IIICS fragment was used to test the activity of the SSTN peptides. SSTN peptides were used at up to 30 μM, and the GRGDSP peptide was used up to 1 mM. Activity observed in the assays was plotted against a standard curve to determine relative activity.
as §1

[11] = test system: CAG myeloma tumor xenografts; conditions: nude mice, Alzet pumps 0.365 mg/kg/day, 4 weeks; modified from Beauvais et al. 2016; cited from earlier work
[12] = test system: HaCaT keratinocytes and MCF10A breast epithelial cells; conditions: 3, 10 or 30 μM, 3 days; Beauvais et al. 2016; cited from earlier work
[13] = test system: CAG myeloma, mouse M21 melanoma, human microvascular endothelial and Jurkat T-lymphoma cells; assay: Cell adhesion to VCAM-1; type: cell-based; conditions: 2 hr, 30 μM
Experimental: (§2) FIGS. 11A, 11B, 11C, and 11D. […] 11A. CAG myeloma, mouse M21 melanoma, human microvascular endothelial and Jurkat T-lymphoma cells are plated on VCAM-1 for 2 hr in the presence or absence of 30 μM SSTNVLA4 or VLA-4 blocking antibody as a test of specificity. Numbers of adherent cells are quantified and expressed as a percentage of control, untreated cells in FIG. 11B. 11C. Cells are plated on top of filters coated with VCAM-1 allowed to migrate for 16 hr in the presence or absence of 30 μM SSTNVLA4. Cells accumulating on the bottom of the filters are visualized by staining. 11D. Expression level of Sdc1 and VLA-4 are shown by Western blot staining of mouse natural killer (NK) and T-cells harvested from mouse spleens.

HMEC-1 = conditions: 16 h, 30 μM; modified from Jung et al. 2016; cited from earlier work
[14] = test system: myeloma, melanoma, microvascular endothelial and T-lymphoma cells; assay: Migration through filters coated with VCAM-1; type: cell-based; conditions: 16 hr, 30 μM
Experimental: as §2

CAG myeloma cells = CAG myeloma cells plated on FN for 2.5 hr; 0, 0.3, 3, or 30 μM; modified from Jung et al. 2016; cited from earlier work
HMEC-1 cells = conditions: 20 ng/ml VEGF, 30 μM, 24 h; modified from Jung et al. 2016; cited from earlier work
VEGFR2 = conditions: 2 h on IIICS, 10 μM; modified from Jung et al. 2016; cited from earlier work

For “SSTNIGF1R: peptide mimetic of the Sdc1 docking site (aa93-120 in human Sdc1) that captures IGF-1R and the αvβ3 or αvβ5 integrin”, the melanoma cell survival [1] is given as “killed; also recorded: blocked”, the “growth of carcinoma cells” value [2] is given as “BLOCKS THE GROWTH” and the “stability (activity retained)” value [3] is given as 100%. The “stability when incubated in plasma” value [4] was “remarkable stability”, the ASK-1 activation [5] was “ACTIVATES” and the “block of melanoma cell invasion” value [6] was “partially block; also recorded: partial block”. The half-life in vivo [7] was “ca. 27 hr”, the “stability (activity retained)” value [8] was 100% and the “abnormal angiogenesis in vivo” value [9] was “block abnormal angiogenesis”. For the same compound, the “stability (activity retained)” value [10] was 100%, the “growth of myeloma tumors” value [11] was “INHIBITS GROWTH” and the “growth of normal epithelial cells” value [12] was “not affected and NOT”.

For “SSTNVLA4: peptide mimetic of the VLA-4 binding site of Sdc1, comprised of amino acids 210-233 (or 210-221) (DFTFETSGENTAVVAVEPDRRNQS)”, the melanoma cell survival [1] is given as “only a minimal effect; also recorded: only minimally”, the “binding of cells to the VLA-4 ligand VCAM-1” value [13] is given as “prevented” and the endothelial cell invasion (HMEC-1) is given as “BLOCKS”. For the same compound, the “invasion of cells through VCAM-1-coated filters” value [14] was “BLOCKS THE INVASION”, the “invasion of cells through VCAM-1-coated filters” value ([14]; listed as SSTNVLA-4) was “prevented” and the “block of melanoma cell invasion” value [6] was “partially block; also recorded: partial block”. For the same compound, the “VLA-4-mediated adhesion of myeloma cells” value (CAG myeloma cells) was “displaced from VLA-4 ligands; also recorded: BLOCKS”, the tube formation (HMEC-1 cells) was “prevents the angiogenic phenotype; also recorded: BLOCKS” and the “stability (activity retained)” value [10] was 100%. The VEGFR2 activation (VEGFR2) was “BLOCKS”.

For “LPAGEGPKEGEAVVLPEVEPGLTAREQDFTFETSGENTA [SSTNI/V]”, the “stability in serum (in words)” value [10] was “highly stable; also recorded: same remarkable stability” and the “stability (activity retained)” value [10] was 100%.

In the case of `N=C(N)NCCC[C@H](NC(=O)CN)C(=O)NCC(=O)N[C@@H](CC(=O)O)C(=O)N[C@@H](CO)C(=O)N1CCC[C@H]1C(=O)O` [GRGDSP], the “time to complete inactivation” value ([10]; control peptide, tested by endothelial cell adhesion to fibronectin) is reported as no more than 8 h and the “stability in serum (in words)” value [10] is reported as “destroyed within a matter of a few hr”.

Source: patent publication US9963498B2, “Peptides that inhibit syndecan-1 activation of VLA-4 and IGF-1R” (Wisconsin Alumni Research Foundation, priority 2016, dated 2018)
